Laboratory results from patent US10881110B2, “Herbicidal compositions comprising isoxazolo[5,4-b]pyridines” (BASF SE, priority 2014, dated 2021).
“And” between values parts separate entries of the source, which are not always exact repeats. Equal entries are not always repeated. Where two headings read alike, the source gives them in different places.

Assays:
Assay in all cases: greenhouse post-emergence herbicidal test
[1] = test system: SEBEX; format: in vivo, Sesbania exaltata; settings: application rate a.i.: I.1 31.25 g/ha
Method: (§1) The culture containers used were plastic pots containing medium loamy sand with approximately 4.6% of humus and 69.9% sand as substrate. The seeds of the test plants were sown separately for each species.
(§2) For the post-emergence treatment, the test plants were grown to a plant height of from 1 to 15 cm, depending on the plant habit, and only then treated with the active compounds which had been suspended or emulsified in water. To this end, the test plants were either sown directly, and grown in the same containers, or they were first grown separately as seedlings and transplanted into the test containers a few days prior to treatment.
(§3) Depending on the species, the plants were kept at 10-25° C. and 20-35° C., respectively.
(§4) The test period extended over 1 to 3 weeks. During this time, the plants were tended and their response to the individual treatments was evaluated 20 days after treatment except mentioned otherwise.
Evaluation was carried out using a scale from 0 to 100. 100 means no emergence of the plants, or complete destruction of at least the above-ground parts, and 0 means no damage or normal course of growth.
The respective stated components A and B, and, if appropriate, C, were formulated as a 10% by weight strength emulsion concentrate and, with addition of the amount of solvent system, introduced into the spray liquor used for applying the active compound. In the examples, the solvent used was water.
In the examples below, using the method of S. R. Colby (1967) “Calculating synergistic and antagonistic responses of herbicide combinations”, Weeds 15, p. 22 ff., the value E, which is expected if the activity of the individual active compounds is only additive, was calculated. E=X+Y−(X·Y/100)

[2] = test system: ALOMY; format: in vivo, Alopecurus myosuroides; parameters: key to herbicidal activity against ALOMY found: rating on a scale from 0 to 100; settings: post emergence
Method in brief: (§5)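 Each species was sown separately, grown to a height of 1 to 15 cm and then sprayed with water-dispersed components A, B and where relevant C. Growth conditions were 10-25° C or 20-35° C, and percent damage was recorded at 20 days.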

[3] = test system: SETVI; format: in vivo, Setaria viridis; settings: a.i. g/ha: I.1 20.8, B.192 62.5, 20 days after treatment
Method: as §1, §2, §3, §4
Evaluation was carried out using a scale from 0 to 100. […]
In the examples below, using the method of S. R. Colby (1967) “Calculating synergistic and antagonistic responses of herbicide combinations”, Weeds 15, p. 22 ff., the value E, which is expected if the activity of the individual active compounds is only additive, was calculated. […]

[4] = test system: APESV; format: in vivo, Apera spica-venti; parameters: key to herbicidal activity against APESV found: rating on a scale from 0 to 100; settings: post emergence; for pest or weed control at 31.25 g/ha / pest or weed control at 62.5 g/ha / pest or weed control at 125 g/ha: Apera spica-venti, post-emergence, 480 h, read-out: herbicidal activity against APESV found
Method in brief: as §5

[5] = I.1 62.5 g/ha, B.88 1 g/ha a.i.
[6] = I.1 62.5 g/ha, B.88 2 g/ha a.i.
[7] = I.1 62.5 g/ha, B.95 1 g/ha a.i.
[8] = a.i. g/ha: I.1 6.9, B.67 62.5, 20 days after treatment
[9] = applied alone at 31.25 g/ha a.i.

O=C(O)c1cc(C2CC2)nc2onc(C3CC3)c12 [I.1]
herbicidal activity against SEBEX, found ([1]; B.139 (pyroxasulfone) 25 g/ha, alone or as mixture (composition 1.139)): 80
herbicidal activity against SEBEX, found ([1]; B.87 (carfentrazone-ethyl) 1.75 g/ha, alone or as mixture (composition 1.87)): 75
pest or weed control at 31.25 g/ha ([2]; Alopecurus myosuroides, post-emergence, 480 h, I.1 alone 31.25 g/ha a.i., read-out: herbicidal activity against ALOMY found): 0%
pest or weed control at 31.25 g/ha ([2]; Alopecurus myosuroides, post-emergence, 480 h, I.1 31.25 g/ha a.i., read-out: herbicidal activity against ALOMY found): 0%
pest or weed control at 62.5 g/ha ([2]; Alopecurus myosuroides, post-emergence, 480 h, I.1 62.5 g/ha a.i., read-out: herbicidal activity against ALOMY found): 0%
pest or weed control at 125 g/ha ([2]; Alopecurus myosuroides, post-emergence, 480 h, I.1 125 g/ha a.i., read-out: herbicidal activity against ALOMY found): 25%
pest or weed control at 15.62 g/ha ([2]; Alopecurus myosuroides, post-emergence, 480 h, single active, 15.62 g/ha a.i., read-out: herbicidal activity against ALOMY found): 0%
pest or weed control at 31.25 g/ha ([2]; Alopecurus myosuroides, post-emergence, 480 h, single active, 31.25 g/ha a.i., read-out: herbicidal activity against ALOMY found): 0%
pest or weed control at 62.5 g/ha ([2]; Alopecurus myosuroides, post-emergence, 480 h, single active, 62.5 g/ha a.i., read-out: herbicidal activity against ALOMY found): 0%
pest or weed control at 125 g/ha ([2]; Alopecurus myosuroides, post-emergence, 480 h, single active, 125 g/ha a.i., read-out: herbicidal activity against ALOMY found): 25%
herbicidal activity against ALOMY found ([2]; I.1 31.25 g/ha, B.95 1 g/ha a.i.): 0
herbicidal activity against ALOMY found [2, 5]: 0
herbicidal activity against ALOMY found [2, 6]: 0
herbicidal activity against ALOMY found ([2]; I.1 62.5 g/ha, B.89 12.5 g/ha a.i.): 0
herbicidal activity against ALOMY found [2, 7]: 0
herbicidal activity against ALOMY found [2, 8]: 0%
herbicidal activity against ALOMY found ([2]; a.i. g/ha: I.1 20.8, B.67 62.5, 20 days after treatment): 0%
herbicidal activity against ALOMY found ([2]; a.i. g/ha: I.1 62.5, B.67 62.5, 20 days after treatment): 0%
herbicidal activity against ALOMY found ([2]; application rate a.i.: I.1 250 g/ha, B.193 15 g/ha, alone or as mixture (composition 1.193)): 45
herbicidal activity against ALOMY found [2, 9]: 0
herbicidal activity against ALOMY found ([2]; applied alone at 125 g/ha a.i.): 20 and 25
herbicidal activity against ALOMY found ([2]; g/ha a.i.: I.1 31.25, B.52 2.5, mixture 31.25+2.5): 25
herbicidal activity against ALOMY found ([2]; g/ha a.i.: I.1 62.5, B.20 4, mixture 62.5+4): 25
herbicidal activity against ALOMY found ([2]; g/ha a.i.: I.1 62.5, B.52 2.5, mixture 62.5+2.5): 25
herbicidal activity against ALOMY found ([2]; g/ha a.i.: I.1 125, B.20 2, mixture 125+2): 30
herbicidal activity against ALOMY found ([2]; g/ha a.i.: I.1 125, B.20 4, mixture 125+4): 30
herbicidal activity against ALOMY found ([2]; g/ha a.i.: I.1 125, B.24 1, mixture 125+1): 30
herbicidal activity against ALOMY found ([2]; g/ha a.i.: I.1 125, B.24 2, mixture 125+2): 30
herbicidal activity against ALOMY found ([2]; g/ha a.i.: I.1 125, B.52 2.5, mixture 125+2.5): 30
herbicidal activity against ALOMY found ([2]; g/ha a.i.: I.1 125, B.63 0.5, mixture 125+0.5): 30
herbicidal activity against SETVI found [3]: 25%
pest or weed control at 31.25 g/ha ([4]; I.1 alone 31.25 g/ha a.i.): 0%
pest or weed control at 62.5 g/ha ([4]; I.1 alone 62.5 g/ha a.i.): 0%
pest or weed control at 125 g/ha ([4]; I.1 alone 125 g/ha a.i.): 0%
pest or weed control at 31.25 g/ha ([4]; 31.25 g/ha a.i.): 0%
pest or weed control at 62.5 g/ha ([4]; 62.5 g/ha a.i.): 0%
pest or weed control at 125 g/ha ([4]; I.1 125 g/ha a.i.): 15%
pest or weed control at 31.25 g/ha ([4]; single active, 31.25 g/ha a.i.): 0%
pest or weed control at 62.5 g/ha ([4]; single active, 62.5 g/ha a.i.): 0%
pest or weed control at 125 g/ha ([4]; single active, 125 g/ha a.i.): 0%
herbicidal activity against APESV found ([4]; I.1 15.62 g/ha, B.88 1 g/ha a.i.): 0
herbicidal activity against APESV found ([4]; I.1 15.62 g/ha, B.95 1 g/ha a.i.): 0
herbicidal activity against APESV found ([4]; I.1 31.25 g/ha, B.88 1 g/ha a.i.): 0
herbicidal activity against APESV found ([4]; I.1 31.25 g/ha, B.88 2 g/ha a.i.): 0
herbicidal activity against APESV found [4, 5]: 10
herbicidal activity against APESV found [4, 6]: 10
herbicidal activity against APESV found [4, 7]: 10
herbicidal activity against APESV found ([4]; a.i. g/ha: I.1 2.3, B.67 62.5, 20 days after treatment): 0%
herbicidal activity against APESV found [4, 8]: 0%
herbicidal activity against APESV found [4, 9]: 0
